# Results taken from patent US9650423B2, “Long peptides of 22-45 amino acid residues that induce and/or enhance antigen specific immune responses” (priority 2000, dated 2017).
# pIC50: −log10 of the molar value. Where two headings read alike, the source gives them in different places. Residues, ends and D or L forms follow the SMILES beside them. No end group written: not given here.
# Legend:
# HLA-DR2 (DRB1*0201) = assay: HLA-DR-peptide binding assay; design: species or system human
# HLA-DR3 (DRB*0301) = assay: HLA-DR-peptide binding assay; design: species or system human
# HLA-DR4 (DRB*0401) = assay: HLA-DR-peptide binding assay; design: species or system human
# healthy donor PBMC = format: cell-based, human; conditions: for mean percentage of wells exceeding medium control + 3 * SD: 10 μg/ml, day 6, two assays
# HLA-DR1 (DRB*0101) = biological target: T1, HLA-DR1 (DRB*0101) (Homo sapiens, UniProt P01903+P01911, A100R/D57E/F55L/F60I/F76Y/I96L/L162R/M171V/P40L/Q125E/R42F/V115G/Y59C); assay: biochemical; format: binding
# T1 construct: endogenous in cells; host or cells: LG2.1 B-lymphoblastic cell line, homozygous for HLA-DR
# [1] = tested on: HPV16 E7-specific T-helper clones; assay: HPV16 E7-specific Th-clones: proliferation and IFNγ production; format: cell-based, human; conditions: for recognition by HLA-DQ2 restricted Th-clone, IFNγ secretion: Th-clone from HLA-DR3, DQ2 positive PBMC stimulated with peptide E722-56; for response of HLA-DR15 restricted Th-clone to pulsed APC: Th-clone from HLA-DR15, 4 and DQ6,7 positive PBMC raised against peptide E741-62
# Procedure: Peptide-specific T-cell bulk cultures were generated as described previously (van der Burg et al., 1999) using either the E7 22-mer or E7 35-mer peptides. Specific proliferation was measured by incubation of 50,000 responders with an equal amount of irradiated (30Gy) APC (autologous PBMC unless indicated otherwise) and peptide or protein as indicated. E7-peptide and -protein-specific bulk T-cells were cloned by limiting dilution as described previously (van der Burg et al., 1999).
# To determine specific excretion of cytokines, T-cell clones were stimulated by incubation of 50.000 T-cells with an equal amount of APC (30Gy) together with 10 μg/ml peptide, control peptide, E7 protein or control protein as indicated. After 24 hours of incubation, supernatant was harvested and replicate wells were pooled. Cytokine production was measured by Enzyme-Linked Immunosorbent Assay (ELISA) as described previously (van der Burg et al., 1999).
# [2] = tested on: E7 49-57-specific CD8+ T cells; assay: Vaccination, H-2Db E7 49-57 tetramer staining of spleen cultures; format: in vivo, C57BL/6 mice; conditions: B6 mice
# Procedure: Immunization strategies. C57BL/6 mice were injected subcutaneously with either 50 μg E7^49-57 peptide or 150 μg E7^43-77 35-mer dissolved in PBS in order to achieve similar molar levels of the E7^49-57 CTL epitope in both cases. Combinations with various adjuvantia were tested. In the case of IFA and Montanide, the dissolved peptides were emulsified in 50% of these respective substances. ODN-CpG (50 μg/mouse), MPL (10 μg/mouse) and GM-CSF (4 μg/mouse) were all dissolved in PBS and mixed with the peptides before subcutaneous vaccination. The total injected volume was 200 μl/mouse.
# T cell cultures. T cells were obtained from immunized mice by culturing spleen cells (5×10^6 cells/well of a 24-wells plate) in complete medium in the presence of 0.5×10^6 E7^49-57-expressing cells (tumor cell line 13.2) or, when indicated, in the presence of D1 cells.
# Tetramer staining. Spleen cultures, stimulated with tumor cell line 13.2 for seven days, were transferred at an amount of 40×10^4 per well to 96-well V-bottom microtiter plates and washed twice with PBS/BSA 0.5%. Subsequently, PE-labelled E749-57-containing tetramer was added. After 30 minutes of incubation at room temperature, cells were washed twice with PBS/BSA 0.5% and incubated with FITC-labelled anti CD8b Ab for 30 minutes. Subsequently cells were washed twice in PBS/BSA 0.5%, suspended in PBS/BSA 0.5% containing Propidium Iodide (PI) (0.5) μg/ml) and transferred to tubes. Cell samples were analysed in a FACSCalibur flow cytometer (Becton Dickinson, San Jose, Calif., USA) using CellQuest software. A total of 20×10^4 events was analysed for fluorescence intensity. Debris was gated out using the PI staining and subsequently the CD8^+ fraction was gated. […] As a positive control the HPV16 E7 specific CTL clone 9.5 was used.
# [3] = HPV16-E2 peptides, >70 represents undetectable binding, read-out: Binding affinity DR2, IC50
# [4] = HPV16-E2 peptides, >70 represents undetectable binding, read-out: Binding affinity DR3, IC50
# [5] = HPV16-E2 peptides, >70 represents undetectable binding, read-out: Binding affinity DR4, IC50
# [6] = HPV16-E2 peptides, >70 represents undetectable binding, read-out: Binding affinity DR1, IC50
molecule,measurement,setting,value
CC[C@H](C)[C@H](NC(=O)[C@H](CCCNC(=N)N)NC(=O)CNC(=O)[C@H](CCCCN)NC(=O)[C@H](Cc1c[nH]cn1)NC(=O)[C@H](CO)NC(=O)[C@H](CO)NC(=O)[C@H](CC(N)=O)NC(=O)[C@@H](N)Cc1ccccc1)C(=O)N[C@@H](CC(N)=O)C(=O)N[C@@H](CS)C(=O)N[C@@H](CC(N)=O)C(=O)N[C@@H](CO)C(=O)N[C@@H](CC(N)=O)C(=O)N[C@H](C(=O)N[C@H](C(=O)N1CCC[C@H]1C(=O)N[C@H](C(=O)N[C@H](C(=O)N[C@@H](Cc1c[nH]cn1)C(=O)N[C@@H](CC(C)C)C(=O)N[C@@H](CCCCN)C(=O)NCC(=O)N[C@@H](CC(=O)O)C(=O)N[C@@H](C)C(=O)N[C@@H](CC(N)=O)C(=O)N[C@H](C(=O)N[C@@H](CC(C)C)C(=O)N[C@@H](CCCCN)C(=O)N[C@@H](CS)C(=O)O)[C@@H](C)O)C(C)C)[C@@H](C)CC)[C@@H](C)O)[C@@H](C)O [E2 271-300] (H-FNSSHKGRINCNSNTTPIVHLKGDANTLKC-OH; N-terminus and C-terminus assumed),pIC50,HLA-DR2 (DRB1*0201); [3],4.19
same,pIC50,HLA-DR3 (DRB*0301); [4],4.43
same,pIC50,HLA-DR4 (DRB*0401); [5],< 4.15
same,mean percentage of wells exceeding medium control + 3 * SD,healthy donor PBMC; donor D8,88%
AIVTLTYDSEWQRDQFLSQVKIPKTITVSTGFMSI [E2 331-365],pIC50,HLA-DR1 (DRB*0101); [6],5.10
same,pIC50,HLA-DR2 (DRB1*0201); [3],4.70
same,pIC50,HLA-DR3 (DRB*0301); [4],5.00
same,pIC50,HLA-DR4 (DRB*0401); [5],4.82
same,mean percentage of wells exceeding medium control + 3 * SD,healthy donor PBMC; donor D3,100%
same,mean percentage of wells exceeding medium control + 3 * SD,healthy donor PBMC; donor D7,75%
"E2 31-60: 30-mer, amino acids 31-60 of HPV16 E2 protein (DYWKHMRLECAIYYKAREMGFKHINHQVVP; UniProt P03120 31-60, looked up, fragment)",mean percentage of wells exceeding medium control + 3 * SD,healthy donor PBMC; donor D3,81%
same,mean percentage of wells exceeding medium control + 3 * SD,healthy donor PBMC; donor D8,88%
"E2 46-75: 30-mer, amino acids 46-75 of HPV16 E2 protein (AREMGFKHINHQVVPTLAVSKNKALQAIEL; UniProt P03120 46-75, looked up, fragment)",mean percentage of wells exceeding medium control + 3 * SD,healthy donor PBMC; donor D3,88%
same,mean percentage of wells exceeding medium control + 3 * SD,healthy donor PBMC; donor D5,81%
same,mean percentage of wells exceeding medium control + 3 * SD,healthy donor PBMC; donor D8,94%
"E2 91-120: 30-mer, amino acids 91-120 of HPV16 E2 protein (KWTLQDVSLEVYLTAPTGCIKKHGYTVEVQ; UniProt P03120 91-120, looked up, fragment)",mean percentage of wells exceeding medium control + 3 * SD,healthy donor PBMC; donor D5,94%
same,mean percentage of wells exceeding medium control + 3 * SD,healthy donor PBMC; donor D8,75%
"E2 151-180: 30-mer, amino acids 151-180 of HPV16 E2 protein (QVDYYGLYYVHEGIRTYFVQFKDDAEKYSK; UniProt P03120 151-180, looked up, fragment)",mean percentage of wells exceeding medium control + 3 * SD,healthy donor PBMC; donor D3,81%
same,mean percentage of wells exceeding medium control + 3 * SD,healthy donor PBMC; donor D8,81%
"E2 166-195: 30-mer, amino acids 166-195 of HPV16 E2 protein (TYFVQFKDDAEKYSKNKVWEVHAGGQVILC; UniProt P03120 166-195, looked up, fragment)",mean percentage of wells exceeding medium control + 3 * SD,healthy donor PBMC; donor D3,94%
same,mean percentage of wells exceeding medium control + 3 * SD,healthy donor PBMC; donor D5,81%
"E7 22-56: long peptide, amino acids 22-56 of HPV16 E7 protein (LYCYEQLNDSSEEEDEIDGPAGQAEPDRAHYNIVT; UniProt P03129 22-56, looked up, fragment)","recognition by HLA-DQ2 restricted Th-clone, IFNγ secretion",[1],secreted IFNγ
"E7 30-50: peptide, amino acids 30-50 of HPV16 E7 (DSSEEEDEIDGPAGQAEPDRA; UniProt P03129 30-50, looked up, fragment)","recognition by HLA-DQ2 restricted Th-clone, IFNγ secretion",[1],recognized
"E7 35-50: core sequence, amino acids 35-50 of HPV16 E7 (EDEIDGPAGQAEPDRA)","recognition by HLA-DQ2 restricted Th-clone, IFNγ secretion",[1],recognized the core sequence
"E7 35-55: peptide, amino acids 35-55 of HPV16 E7 (EDEIDGPAGQAEPDRAHYNIV; UniProt P03129 35-55, looked up, fragment)","recognition by HLA-DQ2 restricted Th-clone, IFNγ secretion",[1],recognized
"E7 50-62: core sequence, amino acids 50-62 of HPV16 E7 (AHYNIVTFCCKCD)",response of HLA-DR15 restricted Th-clone to pulsed APC,[1],core sequence recognized
E7 protein: recombinant HPV16-E7 protein produced in E. coli [reference compound],"recognition by HLA-DQ2 restricted Th-clone, IFNγ secretion",[1],secreted IFNγ
same,response of HLA-DR15 restricted Th-clone to pulsed APC,[1],specifically respond
"RAHYNIVTF (minimal 9 amino acid long CTL epitope) [E7 49-57, ID; NO, reference compound]",E7 49-57-specific CD8+ T cell response,"[2]; prime-boost, IFA",comparable to that after one vaccination
same,CD8+ T cells stained with tetramers,"[2]; vaccinated once, IFA, responders",~5%
same,mice responding to the vaccine (tetramer staining),"[2]; vaccinated once, IFA, spleens day 10",3 out of 9
same,number of responders,"[2]; vaccinated once, MPL",4/9
same,E7 49-57-specific CTL response,"[2]; vaccinated once, Montanide adjuvant",no responses were observed
same,number of responders,"[2]; vaccinated once, ODN-CpG",4/12
same,E7 49-57-specific CTL response,"[2]; vaccinated once, combined with anti-CD40 antibody or GM-CSF",no or minimal CTL responses
SSEEEDEIDGPAGQAEPDRAHY [E7 31-52],pIC50,"HLA-DR1 (DRB*0101); read-out: Binding DR1, IC50",< 4.15
same,pIC50,"HLA-DR2 (DRB1*0201); HPV16-E7 22-mer peptides, >70 indicates undetectable binding, read-out: Binding DR2, IC50",< 4.15
same,pIC50,"HLA-DR3 (DRB*0301); HPV16-E7 22-mer peptides, >70 indicates undetectable binding, read-out: Binding DR3, IC50",< 4.15
same,pIC50,"HLA-DR4 (DRB*0401); HPV16-E7 22-mer peptides, >70 indicates undetectable binding, read-out: Binding DR4, IC50",< 4.15
SSTWHWTGHNVKHKSAIVTLTYDSEWQRDQ [E2 316-345],pIC50,HLA-DR1 (DRB*0101); [6],5.22
same,pIC50,HLA-DR2 (DRB1*0201); [3],4.26
same,pIC50,HLA-DR3 (DRB*0301); [4],4.52
same,pIC50,HLA-DR4 (DRB*0401); [5],< 4.15
same,mean percentage of wells exceeding medium control + 3 * SD,healthy donor PBMC; donor D7,94%
"tetanus toxoid [TT, reference compound]",mean percentage of wells exceeding medium control + 3 * SD,healthy donor PBMC; donor D1,100%
same,mean percentage of wells exceeding medium control + 3 * SD,healthy donor PBMC; donor D2,100%
same,mean stimulation index of all test wells of both assays,healthy donor PBMC; donor D3,25
same,mean percentage of wells exceeding medium control + 3 * SD,healthy donor PBMC; donor D3,100%
same,mean percentage of wells exceeding medium control + 3 * SD,healthy donor PBMC; donor D4,100%
same,mean percentage of wells exceeding medium control + 3 * SD,healthy donor PBMC; donor D5,100%
same,mean stimulation index of all test wells of both assays,healthy donor PBMC; donor D6,139
same,mean percentage of wells exceeding medium control + 3 * SD,healthy donor PBMC; donor D6,100%
same,mean percentage of wells exceeding medium control + 3 * SD,healthy donor PBMC; donor D7,100%
same,mean stimulation index of all test wells of both assays,healthy donor PBMC; donor D8,59
same,mean percentage of wells exceeding medium control + 3 * SD,healthy donor PBMC; donor D8,100%
same,stimulation index (SI),"healthy donor PBMC; donors #3, 4, 5 and 7",13.3-25
same,stimulation index (SI),healthy donor PBMC; donors #3 and 6,≥ 100
